Assay results: paper PMC10873635 (Proceedings of the National Academy of Sciences of the …, 2024)

Key:
His6-Scap(L1)-FLAG = target: T1, His6-Scap(L1)-FLAG (Cricetulus griseus, UniProt P97260); assay: competition with [3H]cholesterol; format: binding; settings: 150 nM [3H]cholesterol, 0.004% NP-40, 0.002% FC-13, 4 °C, 4 h
T1 sequence (P97260 46-269): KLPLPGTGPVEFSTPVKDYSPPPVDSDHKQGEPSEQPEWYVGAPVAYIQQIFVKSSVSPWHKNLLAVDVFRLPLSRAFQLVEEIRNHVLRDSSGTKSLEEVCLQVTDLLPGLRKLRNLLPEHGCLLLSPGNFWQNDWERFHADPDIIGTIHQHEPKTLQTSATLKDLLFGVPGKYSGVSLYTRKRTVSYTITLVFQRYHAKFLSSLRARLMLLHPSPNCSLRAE

His6-ALO (Anthrolysin O) = His6-ALO (Anthrolysin O) (Bacillus anthracis, UniProt A0A6L7HHW7); format: biochemical
Chain of His6-ALO (Anthrolysin O) (A0A6L7HHW7 35-512 limits assumed): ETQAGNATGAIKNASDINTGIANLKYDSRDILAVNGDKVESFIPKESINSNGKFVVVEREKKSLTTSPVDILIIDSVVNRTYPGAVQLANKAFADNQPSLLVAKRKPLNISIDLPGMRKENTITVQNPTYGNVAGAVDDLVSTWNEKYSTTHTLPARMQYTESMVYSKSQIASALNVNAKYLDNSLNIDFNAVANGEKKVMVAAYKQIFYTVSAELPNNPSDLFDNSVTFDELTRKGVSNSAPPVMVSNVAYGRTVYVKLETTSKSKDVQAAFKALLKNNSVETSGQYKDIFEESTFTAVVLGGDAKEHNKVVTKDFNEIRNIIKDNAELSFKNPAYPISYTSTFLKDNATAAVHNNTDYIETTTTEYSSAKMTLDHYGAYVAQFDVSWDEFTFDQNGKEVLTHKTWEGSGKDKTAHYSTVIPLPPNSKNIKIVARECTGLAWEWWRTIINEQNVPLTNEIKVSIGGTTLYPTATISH

Row | SMILES | competition with [3H]cholesterol (His6-Scap(L1)-FLAG; competitive, cholesterol site) | competition with [3H]cholesterol (His6-Scap(L1)-FLAG; competitive) | inhibition of hemolysis of rabbit erythrocytes (His6-ALO (Anthrolysin O)) | competition with [3H]cholesterol (His6-Scap(L1)-FLAG; also labelled compound)
1 | CCOC(=O)c1ccc(NC(=O)Nc2ccc(-c3noc(C4CCC4)n3)cc2)cc1 [UT-59, ethyl 4-({[4-(5-cyclobutyl-1,2,4-oxadiazol-3-yl)anilino]carbonyl}amino) benzoate] | UT-59 competed with [^3H]cholesterol for binding to His6-Scap(L1)-FLAG to a similar degree as unlabeled cholesterol | – | – | –
2 | CC(C)CCC[C@@H](C)[C@H]1CC[C@H]2[C@@H]3CC[C@H]4C[C@@H](O)CC[C@]4(C)[C@H]3CC[C@]12C [dihydrocholesterol] | – | as well as dihydrocholesterol, where the double bond in the steroid nucleus is reduced | – | –
3 | C[C@H](CCCC(C)(C)F)[C@H]1CC[C@H]2[C@@H]3CC=C4C[C@@H](O)CC[C@]4(C)[C@H]3CC[C@]12C [25-fluorocholesterol] | – | both Scap and ALO bind desmosterol, 25-fluorocholesterol, and β-sitosterol | both Scap and ALO bind desmosterol, 25-fluorocholesterol, and β-sitosterol | –
4 | CC[C@H](CC[C@@H](C)[C@H]1CC[C@H]2[C@@H]3CC=C4C[C@@H](O)CC[C@]4(C)[C@H]3CC[C@]12C)C(C)C [β-sitosterol] | – | both Scap and ALO bind desmosterol, 25-fluorocholesterol, and β-sitosterol | both Scap and ALO bind desmosterol, 25-fluorocholesterol, and β-sitosterol | –
5 | CC(C)=CCC[C@@H](C)[C@H]1CC[C@H]2[C@@H]3CC=C4C[C@@H](O)CC[C@]4(C)[C@H]3CC[C@]12C [desmosterol] | – | both Scap and ALO bind desmosterol, 25-fluorocholesterol, and β-sitosterol | both Scap and ALO bind desmosterol, 25-fluorocholesterol, and β-sitosterol | –
6 | CC(C)CCC[C@@H](C)[C@H]1CC[C@H]2[C@@H]3CC=C4C[C@@H](O)CC[C@]4(C)[C@H]3CC[C@]12C [cholesterol] | – | – | the sterol occupied the binding pocket, preventing ALO from binding to the membrane and inhibiting hemolysis | As expected, both Scap and ALO bind cholesterol.
